Experimental data published in publication PMC5584254, “Identification of novel small molecule Beclin 1 mimetics activating autophagy” (Oncotarget, 2017).
Counter-ions that a name gives are not always drawn.

Tests used:
Bcl-xL-Beclin 1 complex = target: T1, Bcl-xL-Beclin 1 complex (Homo sapiens, UniProt Q07817); assay: Concentration response FP reconfirmation of HTS hits; assay type: binding; conditions: hits of first screen; for inhibition at 5 µM: read-out: Dose-response (% Inhibition) 5 μM; for inhibition at 10 µM: read-out: Dose-response (% Inhibition) 10 μM; for inhibition at 20 µM: read-out: Dose-response (% Inhibition) 20 μM; for inhibition at 40 µM: read-out: Dose-response (% Inhibition) 40 μM; for inhibition at 80 µM: read-out: Dose-response (% Inhibition) 80 μM; for inhibition at 160 µM: read-out: Dose-response (% Inhibition) 160 μM
T1 construct: made in house
T1 sequence (Q07817 whole entry, one chain of several): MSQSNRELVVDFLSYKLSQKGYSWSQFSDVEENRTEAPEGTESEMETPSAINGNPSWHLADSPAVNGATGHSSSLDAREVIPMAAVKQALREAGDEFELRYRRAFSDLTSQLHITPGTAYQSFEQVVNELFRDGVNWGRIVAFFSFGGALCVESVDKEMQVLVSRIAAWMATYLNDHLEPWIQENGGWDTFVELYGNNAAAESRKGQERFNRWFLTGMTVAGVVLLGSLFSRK
Protocol: Then the plates were read by Envision (Perkin Elmer, Waltham, MA). […] The hits were selected from library stocks and reconfirmed in a concentration response FP assay (6 doses ranging from 5 μM to 160 μM or 8 doses ranging from 0.5 μM to 60 μM).

DU145 = assay: MTT-based cytotoxicity assay, DU145; conditions: Homo sapiens, DU-145, averages of at least two independent experiments, read-out: Cytotoxicity in different cell lines (IC50, μM) DU145
Text: (§1) Human prostate cancer cell lines PC-3 and DU145, were purchased from American Type Culture Collection (ATCC) and used within 50 passages. PC-3a is a derivative of PC-3 that is resistant to chemo/radiotherapy, established in our lab and confirmed by genotyping. All cells were maintained in DMEM (Mediatech, Manassas, VA) supplemented with 10% fetal bovine serum (FBS) (Sigma-Aldrich, St. Louis, MO), 1% Glutamine (Mediatech, Manassas, VA), 1% antibiotics (Mediatech, Manassas, VA). Compounds for primary FP-based HTS screening were from Prestwick, Microsource, University of Kansas Center of Excellence in Chemical Methodologies & Library Development (KU CMLD, Lawrence, KS), and Chembridge libraries. Compounds for MTT and SPR validation experiment were purchased from Microsource (Gaylordsville, CT) and Hit2lead Company (San Diego, CA). Acridine analogues, compound 1–6, were from our in-house library (provided by Specialized Chemistry Center, University of Kansas, Lawrence, KS); compound 7–17 were synthesized as described in supplementary information. (–)-Gossypol was isolated from racemic gossypol as we previously described. ABT-263 and DMSO were purchased from Sigma. MTT-based cytotoxicity assay and western blot analysis was carried out according to our previous publications. The primary antibodies used were LC3B (#2775) (Cell signaling Technology, Danvers, MA) and β-actin (A5441) (Sigma).

PC-3a = assay: MTT-based cytotoxicity assay, PC-3a; conditions: Homo sapiens, averages of at least two independent experiments, read-out: Cytotoxicity in different cell lines (IC50, μM) PC-3a
Text: as §1

PC-3 = assay: MTT-based cytotoxicity assay, PC-3; conditions: Homo sapiens, averages of at least two independent experiments, read-out: Cytotoxicity in different cell lines (IC50, μM) PC-3
Text: as §1

Bcl-xL protein = target: T2, Bcl-xL protein (Homo sapiens, UniProt Q07817); assay: Surface plasmon resonance assay, immobilized Bcl-xL; assay type: binding; conditions: SPR; 10 μM compound; Bcl-xL immobilized 10000 RU
T2 construct: made in house
T2 sequence (Q07817 whole entry): as the sequence (Q07817 whole entry, one chain of several) above
Protocol: The surface plasmon resonance experiments were performed using a Biacore 3000 (GE Healthcare Pittsburgh, PA) equipped with a research-grade CM5 sensor chip. The ligand (Bcl-xL) was immobilized using amine-coupling chemistry. The surfaces of flow cells on a Biacore sensor chip CM5 were activated for 7 min with a 1:1 mixture of 0.1 M NHS (N-hydroxysuccinimide) and 0.1 M EDC (3-(N,N-dimethylamino) propyl-N-ethylcarbodiimide) at a flow rate of 5 μL/min. The ligand (Bcl-xL) at a concentration of 180 μg/mL in 10 mM sodium acetate, pH 4.5, was immobilized at a density of about 10000 RU on flow cell 2; the ligand (SUMO-Bcl-2, 37.5 kDa, > 90% pure based on SDS–PAGE) at a concentration of 44 μg/ml in 10 mM sodium acetate, pH 4.5, was immobilized at a density of 10000 RU on flow cell 3; flow cell 1 was left blank to serve as a reference surface. All the surfaces were blocked with a 7 min injection of 1 M ethanolamine, pH 8.0.
For kinetic analysis, a concentration series of analyte were injected over the flow cells at a flow rate of 60 μL/min at 20 °C. The complex was allowed to associate and dissociate for 120 and 180 s, respectively. For binding studies, analyte (or test compound) was injected over the two flow cells in duplicate at indicated concentration at a flow rate of 60 μL/min at 20 °C. The running buffer consisted of 20 mM HEPES, 150 mM NaCl, 3 mM EDTA, 1 mM DTT, 0.05% P20, 5% DMSO, pH 7.4. The complex was allowed to associate and dissociate for 120 and 180 s, respectively. The buffer samples containing a range of 4–6% DMSO were injected at the beginning, used for solvent correction. The surfaces were regenerated between binding cycles with a 5 s injection of 5 mM NaOH for compounds and 10 mM Glycine pH 2.5 for 20-mer.
All measurements were taken with flow cell 1 as a reference (i.e. sensorgram depicts “2–1 correction”) and corrected for DMSO bulk differences via the calibration curves. To obtain kinetic rate constants (Ka and Kd), corrected response data were fit to a simple 1:1 interaction model using local fit (includes correction for mass transport limitations) available within Biaevaluation 3.1 software or Scrubber2 software. The equilibrium dissociation constant (KD) was determined by Kd/Ka.

[1] = test system: PC-3 and PC-3a prostate cancer cells; assay: Western blot of autophagy markers (LC3 conversion, P62); assay type: cell-based, Human; conditions: 24 h treatment
Protocol: (§2) Figure 5 Acridine compounds induce autophagy in prostate cancer cells (A) LC3-II conversion in western blot analysis indicated the activity of autophagy. Cells were treated with DMSO or compounds for 24 h, and then lysed and processed for western blot analysis of LC3. (–)G and EBSS were used as positive controls. […] Yellow puncta indicate autophagosome (overlay of red and green fluorescence); red puncta indicate autolysosome (due to green fluorescence quenching at the acidic condition). Cells expressing RFP-GFP-LC3 were treated with compounds A13, A15 or A21 at indicated concentration for 24 h.
Figure 8 Acridine compounds induce autophagy in PC-3 and PC-3a cancer cells LC3-II conversion in western blot analysis indicated the activity of autophagy. Cells were treated with DMSO or compounds for 24 h, and then lysed and processed for western blot analysis of LC3. (–)G and EBSS were used as positive controls.
as §1

PC-3 and PC-3a cells = assay: RFP-GFP-LC3 fluorescence microscopy (autophagic flux); assay type: cell-based, Human; conditions: cells transfected with RFP-GFP-LC3, treated 24 h; PC-3a and PC-3
Protocol: as §2
PC-3 and PC-3a cells were transfected with ptfLC3 plasmid using Lipofectamine 2000 (Invitrogen Life Technologies, Carlsbad, CA). ptfLC3 was a gift from Tamotsu Yoshimori (Addgene plasmid # 21074), and is a tandem fluorescent-tagged LC3 with mRFP (mRFP, monomeric Red Fluorescent Protein) and EGFP (EGFP, Enhanced Green Fluorescent Protein). Twenty-four hours after transfection, cells were treated with compounds for 24 h, then fixed in 4% formaldehyde for 10 min. Cells were then washed three times with PBS, stained with DAPI (0.5 μg/ml in PBS) for 5 min and observed under a fluorescence microscope (OLYMPUS IX81, Tokyo, Japan) with X 40 lens.

inhibition at 5 µM (Bcl-xL-Beclin 1 complex) [%] | inhibition at 10 µM (Bcl-xL-Beclin 1 complex) [%] | inhibition at 20 µM (Bcl-xL-Beclin 1 complex) [%] | inhibition at 40 µM (Bcl-xL-Beclin 1 complex) [%] | inhibition at 80 µM (Bcl-xL-Beclin 1 complex) [%] | inhibition at 160 µM (Bcl-xL-Beclin 1 complex) [%] | binding level to Bcl-xL protein in SPR (Bcl-xL protein) | Compound | IC50 (DU145) [µM] | IC50 (PC-3a) [µM] | IC50 (PC-3) [µM] | LC3-I to LC3-II conversion [1] | RFP-GFP-LC3 puncta (PC-3 and PC-3a cells)
55.9 | 65.8 | 101 | 102 | 102 | 102 | could bind to Bcl-xL | Nc1ccc2cc3ccc(N)cc3nc2c1 [Compound A13, PROFLAVINE HEMISULFATE] | 0.81 ± 0.51 | 0.68 ± 0.16 | 1.08 ± 0.1 | Increased level of LC3-II | many strong red puncta
-0.5 | 6.2 | 14.9 | 20 | 47.7 | 60.9 | could bind to Bcl-xL | CCOc1ccc2nc3cc(N)ccc3c(N)c2c1 [Compound A15, ETHACRIDINE LACTATE] | 10.5 ± 1.11 | 2.33 ± 0.99 | 1.61 ± 0.42 | Increased level of LC3-II | many strong red puncta
14.5 | 26.7 | 38.6 | 47.9 | 58.3 | 66.3 | could bind to Bcl-xL | CCN(CC)CCCC(C)Nc1c2ccc(Cl)cc2nc2ccc(OC)cc12 (stereo not drawn) [Compound A21, QUINACRINE HYDROCHLORIDE] | 2.31 ± 0.39 | 0.8 ± 0.12 | 0.77 ± 0.1 | Increased level of LC3-II | many strong red puncta
